Converted amounts (≈) assume the structure as drawn. The source made the active and inactive calls. The rule behind the calls is not given here.
Tests used:
Plasmodium berghei [1] = experiment: Antimalarial activity against Plasmodium berghei infected in mouse assessed as increase in mean survival days of host at 10 mg/kg, sc administered 72 hrs after infection relative to control; format: functional; settings: route subcutaneous
Enterococcus faecalis = experiment: Antibacterial activity against Streptococcus faecalis MGH-2 by gradient plate test; format: functional
[2] = test system: Mycobacterium tuberculosis; experiment: Antibacterial activity against Mycobacterium tuberculosis H37Ra by gradient plate test; format: functional
Plasmodium gallinaceum [3] = experiment: Antimalarial activity against sporozoite-induced Plasmodium gallinaceum infected in white leghorn chicken assessed as disease cure from parasite infection at 120 mg/kg, sc administered 72 hrs after infection; format: functional, organism-based; design: dose 120 mg/kg
Escherichia coli = experiment: Antibacterial activity against Escherichia coli Vogel by gradient plate test; format: functional
Gallus gallus [4] = experiment: Toxicity in sporozoite-induced Plasmodium gallinaceum infected white leghorn chicken assessed as mortality at 15 mg/kg, sc administered 72 hrs after infection measured up to 6 days; format: organism-based; design: dose 15 mg/kg, route subcutaneous; settings: in vivo
Staphylococcus aureus [5] = experiment: Antibacterial activity against Staphylococcus aureus UC-96 by gradient plate test; format: functional
Plasmodium gallinaceum [6] = experiment: Antimalarial activity against sporozoite-induced Plasmodium gallinaceum infected in white leghorn chicken assessed as disease cure from parasite infection at 30 mg/kg, sc administered 72 hrs after infection; format: functional, organism-based; design: dose 30 mg/kg
Gallus gallus [7] = experiment: Toxicity in sporozoite-induced Plasmodium gallinaceum infected white leghorn chicken assessed as mortality at 30 mg/kg, sc administered 72 hrs after infection measured up to 6 days; format: organism-based; design: dose 30 mg/kg, route subcutaneous; settings: in vivo
Plasmodium berghei [8] = experiment: Antimalarial activity against Plasmodium berghei infected in mouse assessed as increase in mean survival days of host at 20 mg/kg, sc administered 72 hrs after infection relative to control; format: functional; settings: route subcutaneous
Plasmodium berghei [9] = experiment: Antimalarial activity against Plasmodium berghei infected in mouse assessed as increase in mean survival days of host at 40 mg/kg, sc administered 72 hrs after infection relative to control; format: functional; settings: route subcutaneous
Plasmodium berghei [10] = experiment: Antimalarial activity against Plasmodium berghei infected in mouse assessed as disease cure from parasite infection at 80 mg/kg, sc administered 72 hrs after infection; format: functional, organism-based; design: dose 80 mg/kg
Plasmodium gallinaceum [11] = experiment: Antimalarial activity against sporozoite-induced Plasmodium gallinaceum infected in white leghorn chicken assessed as disease cure from parasite infection at 480 mg/kg, sc administered 72 hrs after infection; format: functional, organism-based; design: dose 480 mg/kg
Gallus gallus [12] = experiment: Toxicity in sporozoite-induced Plasmodium gallinaceum infected white leghorn chicken assessed as mortality at 480 mg/kg, sc administered 72 hrs after infection measured up to 6 days; format: organism-based; design: dose 480 mg/kg, route subcutaneous; settings: in vivo
Plasmodium berghei [13] = experiment: Antimalarial activity against Plasmodium berghei infected in mouse assessed as disease cure from parasite infection at 640 mg/kg, sc administered 72 hrs after infection; format: functional, organism-based; design: dose 640 mg/kg
Gallus gallus [14] = experiment: Toxicity in sporozoite-induced Plasmodium gallinaceum infected white leghorn chicken assessed as mortality at 60 mg/kg, sc administered 72 hrs after infection measured up to 6 days; format: organism-based; design: dose 60 mg/kg, route subcutaneous; settings: in vivo
Plasmodium berghei [15] = experiment: Antimalarial activity against Plasmodium berghei infected in mouse assessed as increase in mean survival days of host at 80 mg/kg, sc administered 72 hrs after infection relative to control; format: functional; settings: route subcutaneous
Plasmodium gallinaceum [16] = experiment: Antimalarial activity against sporozoite-induced Plasmodium gallinaceum infected in white leghorn chicken assessed as disease cure from parasite infection at 60 mg/kg, sc administered 72 hrs after infection; format: functional, organism-based; design: dose 60 mg/kg
Plasmodium berghei [17] = experiment: Antimalarial activity against Plasmodium berghei infected in mouse assessed as disease cure from parasite infection at 320 mg/kg, sc administered 72 hrs after infection; format: functional, organism-based; design: dose 320 mg/kg
Plasmodium gallinaceum [18] = experiment: Antimalarial activity against sporozoite-induced Plasmodium gallinaceum infected in white leghorn chicken assessed as disease cure from parasite infection at 15 mg/kg, sc administered 72 hrs after infection; format: functional, organism-based; design: dose 15 mg/kg
Gallus gallus [19] = experiment: Toxicity in sporozoite-induced Plasmodium gallinaceum infected white leghorn chicken assessed as mortality at 240 mg/kg, sc administered 72 hrs after infection measured up to 6 days; format: organism-based; design: dose 240 mg/kg, route subcutaneous; settings: in vivo
Plasmodium gallinaceum [20] = experiment: Antimalarial activity against sporozoite-induced Plasmodium gallinaceum infected in white leghorn chicken assessed as disease cure from parasite infection at 240 mg/kg, sc administered 72 hrs after infection; format: functional, organism-based; design: dose 240 mg/kg
Plasmodium berghei [21] = experiment: Antimalarial activity against Plasmodium berghei infected in mouse assessed as disease cure from parasite infection at 160 mg/kg, sc administered 72 hrs after infection; format: functional, organism-based; design: dose 160 mg/kg
Pseudomonas aeruginosa = experiment: Antibacterial activity against Pseudomonas aeruginosa 28 by gradient plate test; format: functional
Staphylococcus aureus [22] = experiment: Antibacterial activity against drug-resistant Staphylococcus aureus S18713 by gradient plate test; format: functional
Shigella sonnei = experiment: Antibacterial activity against Shigella sonnei C-10 by gradient plate test; format: functional
Gallus gallus [23] = experiment: Toxicity in sporozoite-induced Plasmodium gallinaceum infected white leghorn chicken assessed as mortality at 120 mg/kg, sc administered 72 hrs after infection measured up to 6 days; format: organism-based; design: dose 120 mg/kg, route subcutaneous; settings: in vivo

Cc1cc(Sc2ccc3nc(N)nc(N)c3c2)ccc1Br
MST (Plasmodium berghei [1]): 1.9 days | MIC (Enterococcus faecalis): 10 µg/mL (≈ 27.7 µM) | MIC [2]: > 25 µg/mL | Activity (Plasmodium gallinaceum [3]): Active | MIC (Escherichia coli): 20 µg/mL (≈ 55.4 µM) | Activity (Gallus gallus [4]): Toxic | MIC (Staphylococcus aureus [5]): 5 µg/mL (≈ 13.8 µM) | Activity (Plasmodium gallinaceum [6]): Active | Activity (Gallus gallus [7]): Toxic | MST (Plasmodium berghei [8]): 3.5 days | MST (Plasmodium berghei [9]): 7.7 days | Activity (Plasmodium berghei [10]): Active | Activity (Plasmodium gallinaceum [11]): Active | Activity (Gallus gallus [12]): Toxic | Activity (Plasmodium berghei [13]): Active | Activity (Gallus gallus [14]): Toxic | MST (Plasmodium berghei [15]): 11.9 days | Activity (Plasmodium gallinaceum [16]): Active | Activity (Plasmodium berghei [17]): Active | Activity (Plasmodium gallinaceum [18]): Active | Activity (Gallus gallus [19]): Toxic | Activity (Plasmodium gallinaceum [20]): Active | Activity (Plasmodium berghei [21]): Active | MIC (Pseudomonas aeruginosa): > 25 µg/mL | MIC (Staphylococcus aureus [22]): 10 µg/mL (≈ 27.7 µM) | MIC (Shigella sonnei): 20 µg/mL (≈ 55.4 µM) | Activity (Gallus gallus [23]): Toxic

Reference: ChEMBL document CHEMBL3272271, “Folate antagonists. 13. 2,4-Diamino-6-](alpha,alpha,alpha-trifluoro-m-tolyl)thio]quinazoline and related 2,4-diamino-6-[(phenyl- and naphthyl)thio]quinazolines, a unique class of antimetabolites with extraordinary antimalarial and antibacterial effects” (J Med Chem, 1978)
